How the values were obtained:
Assay type in all cases: in vivo
Design in all cases: fold induction: dose or concentration left out as unconfirmed
[1] = test system: Contig2326_s_at, 12-oxophytodienoic acid reductase; experiment: GEP, barley DNA chip, probe set 1.18; conditions: for fold induction: rates of Table 1 (S7 500)
Method: (§1) Barley plants (cv. Baronesse) were grown in compost-filled pots (diameter: 10 cm) for 10 days in a controlled-environment cabinet under defined light, humidity and temperature conditions (white light, 70% atmospheric humidity, 24° C.). At the time of spray application, the seedlings were approximately 15 cm in size. The test substances selected in this example were molecules which differ markedly in their structure and which have a well documented pronounced safener effect, and other molecules which are known from the literature to have an effect on plant stress and pathogen tolerance (Table 1). The substances were prepared as stock solutions in DMSO (dimethyl sulfoxide) at c=10 mg/ml). This was used for preparing dilutions in water supplemented with 0.2% Agrotin (comprises polyvinyl alcohol, silicones, polysaccharides and pH regulators, manufacturer: Bayer CropScience AG, Monheim, Germany), as wetter, to give the application rates shown in the table. The amount of liquid for the spray application was 800 μl per pot, corresponding to 800 l/ha. For each 800 μl of spray mixture, 16 μl of EC premix: diacetone alcohol=1:6 were additionally added as formulation auxiliaries. The substances listed in Table 1 were applied to the leaves by means of a pneumatic spray pistol. Each substance was sprayed as 2 dosages, and all experiments were carried out as replicates (2 pots per substance). Sprayings with blank formulation without active ingredient were carried out as controls. After 6 hours, the leaves were harvested, frozen in liquid nitrogen and stored at −80° C. until further use. The labeled RNA probes for the DNA chip hybridization were prepared as described in the protocols (Expression Analysis, Technical Manual) from Affymetrix (Affymetrix Inc., 3380 Central Expressway, Santa Clara, Calif., USA). First, total RNA was isolated from in each case 500 mg of the harvested leaves. In each case 10 μg of total RNA was used for the first-strand and second-strand cDNA synthesis. The cDNA was amplified with T7 polymerase and simultaneously labeled with biotin-UTP. In each case, 20 μg of this biotinylated cDNA was employed for the hybridization of the barley genome array (Gene Chip Barleyl, order No.: 511012) from Affymetrix. This DNA microarray comprises DNA sequences of 22 840 genes which are composed of a total of 400 000 EST sequences. Thereafter, the DNA microarrays were washed in the Affymetrix Fluidics Station, stained with streptavidin/phycoerythrin (Molecular Probes, P/N S-866) and scanned with the matching Agilent Laser Scanner (Agilent Gene Array Scanner). The fluorescent data obtained were analyzed with the software Microarray Suite 5 from Affymetrix. After the quality had been checked, all DNA chip analyses were stored in a database. To determine the relative expression values for genes (induction factors, repression factors), test and control chips were compared with each other, and the scoring function set by the Affymetrix software was used as the basis. The 2 biological replications of one experiment were compared in each case with 2 control chips (blank formulation), and the 4 expression values obtained for each gene were used for calculating the median. These medians are shown in the results tables as induction factors. Similarity comparisons of expression profiles from different experiments and cluster analyses were carried out using the software GeneMaths 1.5 from Applied Maths (Applied Maths, Keistraat 120, 9830 Sint-Martens-Latem, Belgium).
(§2) Gene groups from specific metabolic pathways and signal transduction chains were put together by key word search in the annotations, of the genes, which were also provided by Affymetrix, and by Blast analyses (homology comparisons) of the DNA target sequences, i.e. of the positive sequence (identified on the basis of a modified expression profile) identified on the DNA chip, using gene sequences from other organisms, preferably plant organisms, with characterized functions. […]

[2] = test system: Contig10030_at, Putative lipase homolog; experiment: GEP, barley DNA chip, probe set 1.13; conditions: for fold induction: rates of Table 1 (S7 500)
Method: as §1, §2

[3] = test system: Contig2088_s_at, Bowman-Birk type trypsin inhibitor; experiment: GEP, barley DNA chip, probe set 2.1; conditions: for fold induction: rates of Table 1 (S7 500)
Method: as §1, §2

[4] = test system: Contig2992_s_at, Chitinase (EC 3.2.1.14); experiment: GEP, barley DNA chip, probe set 5.2; conditions: for fold induction: rates of Table 1 (S7 500)
Method: as §1, §2

[5] = test system: Contig6194_a_at, 12-oxophytodienoic acid reductase; experiment: GEP, barley DNA chip, probe set 1.7; conditions: for fold induction: rates of Table 1 (S7 500)
Method: as §1, §2

[6] = test system: Contig1737_at, Probable lipoxygenase; experiment: GEP, barley DNA chip, probe set 1.15; conditions: for fold induction: rates of Table 1 (S7 500)
Method: as §1, §2

[7] = test system: Contig5146_at, Probable 12-oxophytodienoate reductase (EC 1.3.1.42); experiment: GEP, barley DNA chip, probe set 1.4; conditions: for fold induction: rates of Table 1 (S7 500)
Method: as §1, §2

[8] = test system: Contig2990_at, Chitinase (EC 3.2.1.14); experiment: GEP, barley DNA chip, probe set 5.1; conditions: for fold induction: rates of Table 1 (S7 500)
Method: as §1, §2

[9] = test system: HV_Ceb0020D05r2_s_at, Allene oxide cyclase; experiment: GEP, barley DNA chip, probe set 1.6; conditions: Hordeum vulgare, topical, read-out: Expression value, 1.6 HV_Ceb0020 D05r2_s_at; for fold induction: barley leaves 6 h after spray application, rates of Table 1 (S7 500), median induction factor vs control
Method: as §1, §2

[10] = test system: Contig12574_at, Putative lipoxygenase; experiment: GEP, barley DNA chip, probe set 1.11; conditions: for fold induction: rates of Table 1 (S7 500)
Method: as §1, §2

[11] = test system: Contig2118_at, Peroxidase (EC 1.11.1.7), pathogen-induced; experiment: GEP, barley DNA chip, probe set 4.1; conditions: for fold induction: rates of Table 1 (S7 500)
Method: as §1, §2

[12] = test system: Contig6611_at, Similar to lipases; experiment: GEP, barley DNA chip, probe set 1.12; conditions: for fold induction: rates of Table 1 (S7 500)
Method: as §1, §2

[13] = Hordeum vulgare, topical, barley leaves 6 h after spray application, median induction factor vs control, read-out: Expression value, 1.18 Contig2326_s_at
[14] = Hordeum vulgare, topical, barley leaves 6 h after spray application, median induction factor vs control, read-out: Expression value, 1.13 Contig10030_at
[15] = Hordeum vulgare, topical, barley leaves 6 h after spray application, median induction factor vs control, read-out: Expression value, 2.1 Contig2088_s_at
[16] = Hordeum vulgare, topical, barley leaves 6 h after spray application, median induction factor vs control, read-out: Expression value, 5.2 Contig2992_s_at
[17] = Hordeum vulgare, topical, barley leaves 6 h after spray application, median induction factor vs control, read-out: Expression value, 1.7 Contig6194_a_at
[18] = Hordeum vulgare, topical, barley leaves 6 h after spray application, median induction factor vs control, read-out: Expression value, 1.15 Contig1737_at
[19] = Hordeum vulgare, topical, barley leaves 6 h after spray application, median induction factor vs control, read-out: Expression value, 1.4 Contig5146_at
[20] = Hordeum vulgare, topical, barley leaves 6 h after spray application, median induction factor vs control, read-out: Expression value, 5.1 Contig2990_at
[21] = Hordeum vulgare, barley leaves 6 h after spray application, median induction factor vs control, read-out: Expression value, 1.11 Contig12574_at
[22] = Hordeum vulgare, topical, barley leaves 6 h after spray application, median induction factor vs control, read-out: Expression value, 4.1 Contig2118_at
[23] = Hordeum vulgare, topical, barley leaves 6 h after spray application, median induction factor vs control, read-out: Expression value, 1.12 Contig6611_at
[24] = barley leaves 6 h after spray application, rates of Table 1 (150 g a.i./ha, S7 500), median induction factor vs control

Row | SMILES | fold induction [1, 13] | fold induction [2, 14] | fold induction [3, 15] | fold induction [4, 16] | fold induction [5, 17] | fold induction [6, 18] | fold induction [7, 19] | fold induction [8, 20] | fold induction [9] | fold induction [10, 21] | fold induction [11, 22] | fold induction [12, 23] | also measured
1 | NC(=O)c1ccc(C(F)(F)F)nc1O [S6] | 1 | 1 | 1 | 2.27 | 3.16 | 1 | 6.77 | 1 | 1 | 1 | 2.2 | 1 | –
2 | CCOC(=O)C(Oc1ccc(Cl)c2cccnc12)C(=O)OCC [S5] | 1 | 1 | 1 | 3.12 | 2.81 | 1 | 5.35 | 1 | 1 | 1 | 2.33 | 1 | –
3 | CCCCCC(C)OC(=O)COc1ccc(Cl)c2cccnc12 (centres unmarked) [S4, Cloquintocet-mexyl] | 2.45 | 1 | 1 | 1 | 2.17 | 1 | 4.72 | 1 | 1 | 1 | 1 | 1 | –
4 | COC(=O)C1=NN(c2ccc(Cl)cc2Cl)C(C)(C(=O)OC)C1 (centres unmarked) [S1, Mefenpyr-dimethyl] | 2.31 | 1 | 1 | 6.5 | 12.9 | 1 | 7.73 | 4.17 | 1 | 0.5 | 8.69 | 1 | –
5 | O=C(NO)c1ccccc1O [S7, Salicyl hydroxamate] | – | – | – | – | – | – | – | – | – | – | – | – | Expression value, 1.18 Contig2326_s_at [1, 24]: 1.00 x times; Expression value, 1.13 Contig10030_at [2, 24]: 1.00 x times; Expression value, 2.1 Contig2088_s_at [3, 24]: 4.79 x times; Expression value, 5.2 Contig2992_s_at [4, 24]: 1.00 x times; Expression value, 1.7 Contig6194_a_at [5, 24]: 1.00 x times; Expression value, 1.15 Contig1737_at [6, 24]: 1.00 x times; Expression value, 1.4 Contig5146_at [7, 24]: 1.00 x times; Expression value, 5.1 Contig2990_at [8, 24]: 1.00 x times; Expression value, 1.11 Contig12574_at [10, 24]: 1.00 x times; Expression value, 4.1 Contig2118_at [11, 24]: 1.00 x times; Expression value, 1.12 Contig6611_at [12, 24]: 2.31 x times
6 | O=C(O)C1=NN(c2ccc(Cl)cc2Cl)C(c2ccc(F)cc2)C1 (centres unmarked) [S2] | 1 | 1 | 1 | 1 | 4.14 | 1 | 4.47 | 1 | 1 | 1 | 1 | 1 | –
7 | CSC(=O)c1cccc2nnsc12 [S8, Acibenzolar-S-methyl] | 1 | 1 | 7.36 | 1 | 1 | 1 | 1 | 1 | 1 | 2.11 | 1 | 3.61 | –
8 | O=C(O)c1cc(Cl)nc(Cl)c1 [S9] | – | – | – | – | – | – | – | – | – | – | – | – | fold induction at 150 g/ha ([1]; Hordeum vulgare, topical, 6 h, read-out: Expression value, 1.18 Contig2326_s_at): 1; fold induction at 150 g/ha ([2]; Hordeum vulgare, topical, 6 h, read-out: Expression value, 1.13 Contig10030_at): 1; fold induction at 150 g/ha ([3]; Hordeum vulgare, topical, 6 h, read-out: Expression value, 2.1 Contig2088_s_at): 2.36; fold induction at 150 g/ha ([4]; Hordeum vulgare, topical, 6 h, read-out: Expression value, 5.2 Contig2992_s_at): 2.14; fold induction at 150 g/ha ([5]; Hordeum vulgare, topical, 6 h, read-out: Expression value, 1.7 Contig6194_a_at): 1; fold induction at 150 g/ha ([6]; Hordeum vulgare, topical, 6 h, read-out: Expression value, 1.15 Contig1737_at): 1; fold induction at 150 g/ha ([7]; Hordeum vulgare, topical, 6 h, read-out: Expression value, 1.4 Contig5146_at): 1; fold induction at 150 g/ha ([8]; Hordeum vulgare, topical, 6 h, read-out: Expression value, 5.1 Contig2990_at): 2.39; fold induction at 150 g/ha ([9]; 6 h): 1; fold induction at 150 g/ha ([10]; Hordeum vulgare, 6 h, read-out: Expression value, 1.11 Contig12574_at): 1; fold induction at 150 g/ha ([11]; Hordeum vulgare, topical, 6 h, read-out: Expression value, 4.1 Contig2118_at): 1; fold induction at 150 g/ha ([12]; Hordeum vulgare, topical, 6 h, read-out: Expression value, 1.12 Contig6611_at): 2
9 | O=C(O)c1cc(Cl)cc(Cl)c1O [S10] | 1 | 1 | 2.41 | 1 | 1 | 1 | 1 | 1 | 1 | 1 | 1 | 2.38 | –
